Earlier results as cited in patent publication US6465194B2, “Monoclonal antibodies to 4,4′-dinitrocarbanilide and a method for analyzing for the drug nicarbazin” (The United States of America as represented by the …, priority 1999, dated 2002).

Columns and labels:
[1] = chickens; Porter and Gilfilan, 1955
Eimeria tenella = conditions: Cuckler et al., 1955

O=C(Nc1ccc([N+](=O)[O-])cc1)Nc1ccc([N+](=O)[O-])cc1 [DNC, 4,4′-dinitrocarbanilide]
excretion rate [1]: more slowly than HDP

Cc1cc(C)nc(O)n1 [HDP, 2-hydroxy-4,6-dimethylpyrimidine]
anticoccidial activity (Eimeria tenella; used alone): no anticoccidial activity

Cc1cc(C)nc(O)n1.O=C(Nc1ccc([N+](=O)[O-])cc1)Nc1ccc([N+](=O)[O-])cc1 [DNC-HDP]
potency in the control of Eimeria tenella relative to DNC by itself (Eimeria tenella; complex versus DNC alone): ten
